From US20230374015A1, “INHIBITORS OF FIBROBLAST GROWTH FACTOR RECEPTOR KINASES” (Kinnate Biopharma Inc., priority 2020, published 2023)

Each compound was assayed against FGFR2 (Homo sapiens, UniProt P21802) (assay: FGFR2 Kinase Protocol - Condition 2 (Reaction Biology HotSpot radiometric kinase assay, no preincubation)). Settings: poly[Glu:Tyr] (4:1) 0.2 mg/ml, ATP 100 microM, 2 hr room temperature.
Format: biochemical
Method in brief: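 Radiometric HotSpot format: FGFR2 (wildtype or V564F) with poly[Glu:Tyr] (4:1) at 0.2 mg/ml in HEPES pH 7.5 buffer with 1% DMSO; ATP plus [γ33P]ATP at 100 µM total, added without preincubation. Reactions ran 2 hr at room temperature, then filter-bound. IC50 from 10-dose, 3-fold series versus DMSO control.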

FGFR2, sequence (P21802 22-821): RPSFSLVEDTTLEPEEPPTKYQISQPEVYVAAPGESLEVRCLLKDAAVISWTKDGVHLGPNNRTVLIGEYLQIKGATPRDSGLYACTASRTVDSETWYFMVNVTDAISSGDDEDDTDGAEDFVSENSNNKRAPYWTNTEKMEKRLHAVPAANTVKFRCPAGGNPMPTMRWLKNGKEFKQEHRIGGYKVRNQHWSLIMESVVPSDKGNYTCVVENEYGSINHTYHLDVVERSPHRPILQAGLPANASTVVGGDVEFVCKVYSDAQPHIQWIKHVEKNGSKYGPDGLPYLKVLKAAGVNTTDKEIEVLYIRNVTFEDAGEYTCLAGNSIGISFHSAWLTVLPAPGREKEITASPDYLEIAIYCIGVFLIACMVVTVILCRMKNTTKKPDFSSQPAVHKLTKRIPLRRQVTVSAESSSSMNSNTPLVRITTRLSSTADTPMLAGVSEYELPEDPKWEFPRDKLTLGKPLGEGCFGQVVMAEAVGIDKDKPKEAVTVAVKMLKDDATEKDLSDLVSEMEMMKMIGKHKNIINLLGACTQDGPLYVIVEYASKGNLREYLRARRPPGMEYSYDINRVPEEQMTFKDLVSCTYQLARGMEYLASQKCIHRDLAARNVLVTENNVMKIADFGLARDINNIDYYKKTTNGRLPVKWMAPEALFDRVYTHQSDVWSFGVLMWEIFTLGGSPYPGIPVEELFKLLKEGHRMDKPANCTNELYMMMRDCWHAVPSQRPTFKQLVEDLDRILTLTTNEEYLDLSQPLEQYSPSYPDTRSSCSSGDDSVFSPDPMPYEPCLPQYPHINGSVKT

IC50, ≤ 100 nM:
C=CC(=O)N1CC[C@H](n2nc(C#Cc3cc4ncn(C)c4c(F)c3F)c3c(N)ncnc32)C1 [Example 154, 1-[(3S)-3-{4-Amino-3-[2-(6,7-difluoro-1-methyl-1,3-benzodiazol-5-yl)ethynyl]pyrazolo[3,4-d]pyrimidin-1-yl}pyrrolidin-1-yl]prop-2-en-1-one]
C=CC(=O)N1CC[C@H](n2nc(C#Cc3cc4ncn(CC)c4c(F)c3F)c3c(N)nccc32)C1 [Example 155, 1-[(3S)-3-{4-Amino-3-[2-(1-ethyl-6,7-difluoro-1,3-benzodiazol-5-yl)ethynyl]pyrazolo[4,3-c]pyridin-1-yl}pyrrolidin-1-yl]prop-2-en-1-one]
C=CC(=O)N1CC[C@H](n2nc(C#Cc3cc4ncn(C)c4c(F)c3F)c3c(N)nccc32)C1 [Example 156, 1-[(3S)-3-{4-Amino-3-[2-(6,7-difluoro-1-methyl-1,3-benzodiazol-5-yl)ethynyl]pyrazolo[4,3-c]pyridin-1-yl}pyrrolidin-1-yl]prop-2-en-1-one]
C=CC(=O)N1C[C@@H](n2nc(C#Cc3cc4ncn(CC)c4c(F)c3F)c3c(N)ncnc32)C[C@@H]1CC#N [Example 157, 2-[(2R,4S)-4-{4-Amino-3-[2-(1-ethyl-6,7-difluoro-1,3-benzodiazol-5-yl)ethynyl]pyrazolo[3,4-d]pyrimidin-1-yl}-1-(prop-2-enoyl)pyrrolidin-2-yl]acetonitrile]
C=CC(=O)N1C[C@@H](n2nc(C#Cc3cc4ncn(C)c4c(F)c3F)c3c(N)ncnc32)C[C@@H]1CC#N [Example 158, 2-[(2R,4S)-4-{4-Amino-3-[2-(6,7-difluoro-1-methyl-1,3-benzodiazol-5-yl)ethynyl]pyrazolo[3,4-d]pyrimidin-1-yl}-1-(prop-2-enoyl)pyrrolidin-2-yl]acetonitrile]
C=CC(=O)N1C[C@@H](n2nc(C#Cc3cc4ncn(C)c4c(F)c3F)c3c(N)nccc32)C[C@@H]1CC#N [Example 159, 2-((2R,4S)-1-Acryloyl-4-(4-amino-3-((6,7-difluoro-1-methyl-1H-benzo[d]imidazol-5-yl)ethynyl)-1H-pyrazolo[4,3-c]pyridin-1-yl)pyrrolidin-2-yl)acetonitrile]
C=CC(=O)N1C[C@@H](n2nc(C#Cc3cc4ncn(CC)c4c(F)c3F)c3c(N)nccc32)C[C@@H]1CC#N [Example 160, 2-[(2R,4S)-4-{4-Amino-3-[2-(1-ethyl-6,7-difluoro-1,3-benzodiazol-5-yl)ethynyl]pyrazolo[4,3-c]pyridin-1-yl}-1-(prop-2-enoyl)pyrrolidin-2-yl]acetonitrile]
C=CC(=O)N1C[C@@H](n2nc(C#Cc3cc4ncn(C)c4c(F)c3Cl)c3c(N)ncnc32)C[C@@H]1CC#N [Example 161, 2-[(2R,4S)-4-{4-Amino-3-[2-(6-chloro-7-fluoro-1-methyl-1,3-benzodiazol-5-yl)ethynyl]pyrazolo[3,4-d]pyrimidin-1-yl}-1-(prop-2-enoyl)pyrrolidin-2-yl]acetonitrile]
C=CC(=O)N1C[C@@H](n2nc(C#Cc3cc4ncn(CC)c4c(F)c3Cl)c3c(N)nccc32)C[C@@H]1CC#N [Example 162, 2-[(2R,4S)-4-{4-Amino-3-[2-(6-chloro-1-ethyl-7-fluoro-1,3-benzodiazol-5-yl)ethynyl]pyrazolo[4,3-c]pyridin-1-yl}-1-(prop-2-enoyl)pyrrolidin-2-yl]acetonitrile]
C=CC(=O)N1C[C@@H](n2nc(C#Cc3cc4ncn(CC)c4cc3F)c3c(N)ncnc32)C[C@@H]1C [Example 163, 1-((2S,4S)-4-(4-amino-3-((1-ethyl-6-fluoro-1H-benzo[d]imidazol-5-yl)ethynyl)-1H-pyrazolo[3,4-d]pyrimidin-1-yl)-2-methylpyrrolidin-1-yl)prop-2-en-1-one]
C=CC(=O)N1C[C@@H](n2nc(C#Cc3cc4ncn(C)c4cc3Cl)c3c(N)ncnc32)C[C@@H]1C [Example 164, 1-((2S,4S)-4-(4-amino-3-((6-chloro-1-methyl-1H-benzo[d]imidazol-5-yl)ethynyl)-1H-pyrazolo[3,4-d]pyrimidin-1-yl)-2-methylpyrrolidin-1-yl)prop-2-en-1-one]
C=CC(=O)N1C[C@@H](n2nc(C#Cc3cc4ncn(C)c4cc3F)c3c(N)nccc32)C[C@@H]1C [Example 165, 1-((2S,4S)-4-(4-amino-3-((6-fluoro-1-methyl-1H-benzo[d]imidazol-5-yl)ethynyl)-1H-pyrazolo[4,3-c]pyridin-1-yl)-2-methylpyrrolidin-1-yl)prop-2-en-1-one]
C=CC(=O)N1C[C@@H](n2nc(C#Cc3cc4ncn(CC)c4cc3F)c3c(N)nccc32)C[C@@H]1C [Example 166, 1-((2S,4S)-4-(4-amino-3-((1-ethyl-6-fluoro-1H-benzo[d]imidazol-5-yl)ethynyl)-1H-pyrazolo[4,3-c]pyridin-1-yl)-2-methylpyrrolidin-1-yl)prop-2-en-1-one]
C=CC(=O)N1C[C@@H](n2nc(C#Cc3cc4ncn(C)c4cc3Cl)c3c(N)nccc32)C[C@@H]1C [Example 167, 1-((2S,4S)-4-(4-amino-3-((6-chloro-1-methyl-1H-benzo[d]imidazol-5-yl)ethynyl)-1H-pyrazolo[4,3-c]pyridin-1-yl)-2-methylpyrrolidin-1-yl)prop-2-en-1-one]
C=CC(=O)N1C[C@@H](n2nc(C#Cc3cc4ncn(CC)c4cc3Cl)c3c(N)ncnc32)C[C@@H]1C [Example 168, 1-((2S,4S)-4-(4-amino-3-((1-ethyl-6-chloro-1H-benzo[d]imidazol-5-yl)ethynyl)-1H-pyrazolo[3,4-d]pyrimidin-1-yl)-2-methylpyrrolidin-1-yl)prop-2-en-1-one]
C=CC(=O)N1C[C@@H](n2nc(C#Cc3cc4ncn(CC)c4cc3Cl)c3c(N)nccc32)C[C@@H]1C [Example 169, 1-((2S,4S)-4-(4-amino-3-((6-chloro-1-ethyl-1H-benzo[d]imidazol-5-yl)ethynyl)-1H-pyrazolo[4,3-c]pyridin-1-yl)-2-methylpyrrolidin-1-yl)prop-2-en-1-one]
C=CC(=O)N1C[C@@H](n2nc(C#Cc3cc4ncn(CC)c4cc3F)c3c(N)ncnc32)C[C@@H]1C(F)F [Example 170, 1-((2R,4S)-4-(4-amino-3-((1-ethyl-6-fluoro-1H-benzo[d]imidazol-5-yl)ethynyl)-1H-pyrazolo[3,4-d]pyrimidin-1-yl)-2-(difluoromethyl)pyrrolidin-1-yl)prop-2-en-1-one]
C=CC(=O)N1C[C@@H](n2nc(C#Cc3cc4ncn(CC)c4cc3F)c3c(N)nccc32)C[C@@H]1C(F)F [Example 171, 1-((2R,4S)-4-(4-amino-3-((1-ethyl-6-fluoro-1H-benzo[d]imidazol-5-yl)ethynyl)-1H-pyrazolo[4,3-c]pyridin-1-yl)-2-(difluoromethyl)pyrrolidin-1-yl)prop-2-en-1-one]
C=CC(=O)N1C[C@@H](n2nc(C#Cc3cc4ncn(C)c4cc3Cl)c3c(N)nccc32)C[C@@H]1C(F)F [Example 172, 1-((2R,4S)-4-(4-amino-3-((6-chloro-1-methyl-1H-benzo[d]imidazol-5-yl)ethynyl)-1H-pyrazolo[4,3-c]pyridin-1-yl)-2-(difluoromethyl)pyrrolidin-1-yl)prop-2-en-1-one]
C=CC(=O)N1C[C@@H](n2nc(C#Cc3cc4ncn(CC)c4c(F)c3Cl)c3c(N)ncnc32)C[C@@H]1CC#N [Example 173, 2-[(2R,4S)-4-{4-Amino-3-[2-(6-chloro-1-ethyl-7-fluoro-1,3-benzodiazol-5-yl)ethynyl]pyrazolo[3,4-d]pyrimidin-1-yl}-1-(prop-2-enoyl)pyrrolidin-2-yl]acetonitrile]
C=CC(=O)N1C[C@@H](n2nc(C#Cc3cc4ncn(C)c4c(F)c3Cl)c3c(N)nccc32)C[C@@H]1CC#N [Example 174, 2-[(2R,4S)-4-{4-Amino-3-[2-(6-chloro-7-fluoro-1-methyl-1,3-benzodiazol-5-yl)ethynyl]pyrazolo[4,3-c]pyridin-1-yl}-1-(prop-2-enoyl)pyrrolidin-2-yl]acetonitrile]
C=CC(=O)N1C[C@@H](n2nc(C#Cc3cc4ncn(C)c4cc3F)c3c(N)ncnc32)C[C@@H]1C(F)F [Example 177, 1-((2R,4S)-4-(4-amino-3-((6-fluoro-1-methyl-1H-benzo[d]imidazol-5-yl)ethynyl)-1H-pyrazolo[3,4-d]pyrimidin-1-yl)-2-(difluoromethyl)pyrrolidin-1-yl)prop-2-en-1-one]
C=CC(=O)N1C[C@@H](n2nc(C#Cc3cc4ncn(C5CC5)c4cc3F)c3c(N)ncnc32)C[C@@H]1C(F)F [Example 178, 1-((2R,4S)-4-(4-amino-3-((1-cyclopropyl-6-fluoro-1H-benzo[d]imidazol-5-yl)ethynyl)-1H-pyrazolo[3,4-d]pyrimidin-1-yl)-2-(difluoromethyl)pyrrolidin-1-yl)prop-2-en-1-one]
C=CC(=O)N1C[C@@H](n2nc(C#Cc3cc4ncn(C)c4cc3Cl)c3c(N)ncnc32)C[C@@H]1C(F)F [Example 179, 1-((2R,4S)-4-(4-amino-3-((6-chloro-1-methyl-1H-benzo[d]imidazol-5-yl)ethynyl)-1H-pyrazolo[3,4-d]pyrimidin-1-yl)-2-(difluoromethyl)pyrrolidin-1-yl)prop-2-en-1-one]
C=CC(=O)N1C[C@@H](n2nc(C#Cc3cc4ncn(CC)c4cc3Cl)c3c(N)ncnc32)C[C@@H]1C(F)F [Example 180, 1-((2R,4S)-4-(4-amino-3-((6-chloro-1-ethyl-1H-benzo[d]imidazol-5-yl)ethynyl)-1H-pyrazolo[3,4-d]pyrimidin-1-yl)-2-(difluoromethyl)pyrrolidin-1-yl)prop-2-en-1-one]
C=CC(=O)N1C[C@@H](n2nc(C#Cc3cc4ncn(C)c4cc3F)c3c(N)nccc32)C[C@@H]1C(F)F [Example 181, 1-((2R,4S)-4-(4-amino-3-((6-fluoro-1-methyl-1H-benzo[d]imidazol-5-yl)ethynyl)-1H-pyrazolo[4,3-c]pyridin-1-yl)-2-(difluoromethyl)pyrrolidin-1-yl)prop-2-en-1-one]
